Measurements as given in patent US20040023884A1, “Biologically active peptides from functional domains of bactericidal/permeability-increasing protein and uses thereof” (priority 1993, published 2004).
Square brackets hold non-standard residues; d marks the D form. Ends that are not written are not given here. 1Nal = N[C@@H](Cc1cccc2ccccc12)C(=O)O; d1Nal = N[C@H](Cc1cccc2ccccc12)C(=O)O; 3Pal = N[C@@H](Cc1cccnc1)C(=O)O; Pal = not defined here

How the values were obtained:
[1] = 3H-heparin binding assay (affinity and capacity); settings: for Heparin Capacity: heparin bound at saturation; for Kd: read-out: Heparin Affinity
Experimental: Briefly, each fragment was added to wells of a 96-well microtiter plate having a polyvinylidene difluoride membrane (Immunobilon-P, Millipore, Bedford, Mass.) disposed at the bottom of the wells. […] Positive control wells contained varying amounts of rBPI23. […] DuPont-NEN, Wilmington, Del.) were made in the blocking buffer and incubated in the BPI peptide-containing wells for one hour at 4° C. The unbound heparin was aspirated and the wells were washed three times with blocking buffer, dried and removed for quantitation in a liquid scintillation counter (Model 1217, LKB, Gaithersburg, Md.). Although BSA in the blocking buffer did show a low affinity and capacity to bind heparin, this was considered physiologically irrelevant and the background was routinely subtracted from the test compound signal.

[2] = test system: E. coli 0111:B4 (smooth) bacteria; assay: Radial diffusion bactericidal assay, E. coli 0111:B4; type: cell-based; settings: radial diffusion; PROBIT analysis; E. coli O111:B4 (smooth)
[3] = test system: rough mutant E. coli J5 bacteria; assay: Radial diffusion bactericidal assay, E. coli J5; type: cell-based; settings: radial diffusion; PROBIT analysis; E. coli J5 (rough)
Experimental: BPI proteolytic fragments produced according to Example 1 were screened for bactericidal effects using rough mutant E. coli J5 bacteria in a radial diffusion assay. Specifically, an overnight culture of E. coli J5 was diluted 1:50 into fresh tryptic soy broth and incubated for 3 hours at 37° C. to attain log phase growth of the culture. Bacteria were then pelleted at 3,000 rpm for 5 minutes in a Sorvall RT6000B centrifuge (Sorvall Instruments, Newton, Conn.). 5 mL of 10 mM sodium phosphate buffer (pH 7.4) was added and the preparation was re-pelleted. […] The bacteria were diluted to 4×10^6 CFU/mL in 10 mL of molten underlayer agarose (at approximately 45° C.) and inverted repeatedly to mix in 15 mL polypropylene tubes conventionally used for this purpose.
The entire contents of such tubes were then poured into a level square petri dish and distributed evenly by rocking the dish side-to-side. […] A series of wells were then punched into the hardened agarose using a sterile 3 mm punch attached to a vacuum apparatus. The punch was sterilized with 100% alcohol and allowed to air dry prior to use to avoid contaminating the bacterial culture.
5 or 10 μL of each of the BPI fragments were carefully pipetted into each well. As a negative control, dilution buffer (pH 8.3) was added to a separate well, and rBPI23 at concentrations of 5 μg/mL and 1 μg/mL were also added as positive controls. Each plate was incubated at 37° C. for 3 hours, and then 10 mL of molten overlayer agarose (at approximately 45° C.) was added into the level petri dish, allowed to harden and incubated overnight at 37° C. […] The bacterial zones were measured with a micrometer.

Staphylococcus aureus = assay: Radial diffusion bactericidal assay, Staphylococcus aureus; type: cell-based; settings: radial diffusion; PROBIT analysis; S. aureus

Substance | Heparin Capacity [1] [ng] | Kd [1] [nM] | pmol added to well to achieve a 30 mm^2 bactericidal zone, E. coli O111:B4 [2] | pmol added to well to achieve a 30 mm^2 bactericidal zone, E. coli J5 [3] | pmol added to well to achieve a 30 mm^2 bactericidal zone, S. aureus (Staphylococcus aureus)
IKISGKWKAKKRFLK [BPI.79] | 110.2 | 199 | b (no detectable activity up to 5 μg/well) | 5,827.30 pmol | b (no detectable activity up to 5 μg/well)
GWLIQLFHKKIESALRNKMNS [BPI.55] | 166.1 | 368 | 3,702.60 pmol | 299.36 pmol | 28,204.45 pmol
IKISGKWKAQKRAβ-(3-pyridyl)LK [BPI.72] | 102.8 | 145 | b (no detectable activity up to 5 μg/well) | 2,925.67 pmol | b (no detectable activity up to 5 μg/well)
IKISGAWAAQKRFLK [BPI.59] | 106.7 | 175 | b (no detectable activity up to 5 μg/well) | 3,718.00 pmol | b (no detectable activity up to 5 μg/well)
IKISGKFKAQKRFLK [BPI.61] | 85.2 | 58.3 | b (no detectable activity up to 5 μg/well) | 86,541.00 pmol | b (no detectable activity up to 5 μg/well)
IKISGKWDKAQKRFLK [BPI.66] | 111.6 | 296 | b (no detectable activity up to 5 μg/well) | 5,846.50 pmol | b (no detectable activity up to 5 μg/well)
IKKRAISFLGKKWQK [BPI.75] | 119.8 | 96 | b (no detectable activity up to 5 μg/well) | 2,708.40 pmol | 9,508.60 pmol
ADADIKISGICWKAQKRFLK [BPI.71] | 158.9 | 75.6 | b (no detectable activity up to 5 μg/well) | 2,296.94 pmol | b (no detectable activity up to 5 μg/well)
IKISGKAβ-(3-pyridyl)KAQKRFLK (IKISGK[3Pal]KAQKRFLK) [BPI.70] | 59.2 | 145 | b (no detectable activity up to 5 μg/well) | b (no detectable activity up to 5 μg/well) | b (no detectable activity up to 5 μg/well)
KSKVKWLIKLFHKK [BPI.100] | 314.0 | 2930 | 7,342.90 pmol | 407.74 pmol | b (no detectable activity up to 5 μg/well)
KSKVGAD-2-β-(1-naphthyl)LIQLFHKK (KSKVG[d1Nal]LIQLFHKK; not fully specified) [BPI.131] | – | – | b (no detectable activity up to 5 μg/well) | 1,438.21 pmol | b (no detectable activity up to 5 μg/well)
IKISGKAβ-(1-naphthyl)KAQAβ-(1-naphthyl)RFLK (IKISGK[1Nal]KAQ[1Nal]RFLK) [BPI.112] | – | – | b (no detectable activity up to 5 μg/well) | 1,485.92 pmol | b (no detectable activity up to 5 μg/well)
KSKVKWLIQLWHKK [BPI.124] | – | – | 3,916.32 pmol | 91.23 pmol | b (no detectable activity up to 5 μg/well)
KWKAQWRFLKKWKAQWRFLKKWKAQWRFLK [BPI.99] | 971.4 | 9100 | 60,037.52 pmol | 722.90 pmol | 37,942,676.00 pmol
KSKVKAβ-(1-naphthyl)LIQLFHKK (KSKVK[1Nal]LIQLFHKK) [BPI.116] | – | – | 37,539.59 pmol | 73.82 pmol | b (no detectable activity up to 5 μg/well)
IKISGKWKAWKRAβ-(1-naphthyl)LKK (IKISGKWKAWKR[1Nal]LKK) [BPI.105] | – | – | 206.98 pmol | 65.35 pmol | 6,260.97 pmol
KSKVGWLITLFHKK [BPI.106] | – | – | 3,413.80 pmol | 427.12 pmol | b (no detectable activity up to 5 μg/well)
KSKVGWDLIQLFHKK [BPI.126] | – | – | b (no detectable activity up to 5 μg/well) | 1,979.97 pmol | b (no detectable activity up to 5 μg/well)
KWQLRSKGKIKIFKA [BPI.114] | – | – | b (no detectable activity up to 5 μg/well) | 1,696.20 pmol | b (no detectable activity up to 5 μg/well)
KSKVGWLIYLFHKK [BPI.125] | – | – | 11,306.79 pmol | 428.85 pmol | b (no detectable activity up to 5 μg/well)
KSKVGA(pyridyl)LIQLFHKK (KSKVG[Pal]LIQLFHKK; reading uncertain; also: printed as KSKVGA(pyridyl)LIQLFHKK) [BPI.132] | – | – | b (no detectable activity up to 5 μg/well) | 4,505.79 pmol | b (no detectable activity up to 5 μg/well)
CIKISGKWKAQKRPLC [BPI.57] | – | – | b (no detectable activity up to 5 μg/well) | 514.03 pmol | b (no detectable activity up to 5 μg/well)
KSKVGWLIQLFHKAβ-(1-naphthyl) (KSKVGWLIQLFHK[1Nal]) [BPI.111] | – | – | 7,232.08 pmol | 969.00 pmol | 12,467.42 pmol
KSKVGFDLIQLPHKK [BPI.128] | – | – | b (no detectable activity up to 5 μg/well) | 2,271.14 pmol | b (no detectable activity up to 5 μg/well)
KSKVGWLIQLFAβ-(1-naphthyl)KK (KSKVGWLIQLF[1Nal]KK) [BPI.110] | – | – | 7,952.04 pmol | 812.33 pmol | b (no detectable activity up to 5 μg/well)
KSKVGW(p-amino)LIFLFHKK (KSKVG[p‑amino‑tryptophan]LIFLFHKK) [BPI.123] | – | – | 6,651.23 pmol | 247.20 pmol | b (no detectable activity up to 5 μg/well)
